Results on 10 molecules are retold here after BindingDB's records for doi:10.1021/acschembio.6b00962 (University of California Riverside, 2017).

One may read the IC50 as the concentration that gives 50% inhibition. A lower IC50 goes with greater potency. The term Kd denotes a measure of binding affinity in units of concentration.

Assay in all cases: DELFIA
Assay [1] has as its target Apoptosis regulator Bcl-2 (Homo sapiens, UniProt P10415). On the procedure: (§1) After 1 h of incubation at RT to allow the immunoreaction to complete, a second washing step allowed removal of the unbound protein in complex with Eu antibodies if displaced by a test compound. […] Each well received a final DMSO concentration equal to 1%. Protein, peptide, and antibody solutions were prepared in DELFIA assay buffer (PerkinElmer).

Assay [2] has as its target Isoform Bcl-X(L) of Bcl-2-like protein 1 (Bcl-xL) (Homo sapiens, UniProt Q07817). On the procedure: as §1
Assay [3] has as its target T1, Bcl-2-related protein A1 [1-149] (Human, UniProt Q16548).
T1 construct: 1-149
T1 sequence (Q16548 whole entry): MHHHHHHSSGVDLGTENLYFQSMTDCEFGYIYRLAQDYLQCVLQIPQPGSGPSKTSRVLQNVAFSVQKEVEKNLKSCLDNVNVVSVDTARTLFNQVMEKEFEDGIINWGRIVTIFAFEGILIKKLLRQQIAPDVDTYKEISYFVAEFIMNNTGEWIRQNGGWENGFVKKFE
The protocol:
as §1

Assay [4] has as its target Induced myeloid leukemia cell differentiation protein Mcl-1 (Homo sapiens, UniProt Q07820). The protocol: as §1

Non-standard residues stand in square brackets, D forms with d. Residues, ends and D or L forms follow the SMILES beside them. ξ: configuration not given here. *: point of attachment. hCys = N[C@@H](CCS)C(=O)O; Dap = NC[C@H](N)C(=O)O; ξDap = NCC(N)C(=O)O; ClAc = O=C(CCl)*

Apoptosis regulator Bcl-2, sequence (P10415 whole entry): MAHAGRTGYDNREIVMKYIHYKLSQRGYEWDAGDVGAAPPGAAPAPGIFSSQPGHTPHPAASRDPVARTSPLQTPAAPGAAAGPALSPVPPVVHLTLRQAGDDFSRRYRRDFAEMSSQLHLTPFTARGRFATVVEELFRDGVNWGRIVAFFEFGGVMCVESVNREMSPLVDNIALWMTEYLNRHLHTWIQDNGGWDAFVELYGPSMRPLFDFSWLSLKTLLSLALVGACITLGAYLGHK
Induced myeloid leukemia cell differentiation protein Mcl-1, sequence (Q07820 whole entry): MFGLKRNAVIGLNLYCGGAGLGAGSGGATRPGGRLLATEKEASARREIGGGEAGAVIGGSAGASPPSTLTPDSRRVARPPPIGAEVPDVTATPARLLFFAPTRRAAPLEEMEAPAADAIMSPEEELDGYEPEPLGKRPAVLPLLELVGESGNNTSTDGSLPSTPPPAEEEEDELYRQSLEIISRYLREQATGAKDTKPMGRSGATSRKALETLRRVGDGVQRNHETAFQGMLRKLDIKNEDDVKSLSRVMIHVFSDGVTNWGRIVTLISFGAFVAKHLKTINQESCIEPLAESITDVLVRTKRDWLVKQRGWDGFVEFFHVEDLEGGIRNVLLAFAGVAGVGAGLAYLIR
Isoform Bcl-X(L) of Bcl-2-like protein 1 (Bcl-xL), sequence (Q07817 whole entry G70A, canonical isoform): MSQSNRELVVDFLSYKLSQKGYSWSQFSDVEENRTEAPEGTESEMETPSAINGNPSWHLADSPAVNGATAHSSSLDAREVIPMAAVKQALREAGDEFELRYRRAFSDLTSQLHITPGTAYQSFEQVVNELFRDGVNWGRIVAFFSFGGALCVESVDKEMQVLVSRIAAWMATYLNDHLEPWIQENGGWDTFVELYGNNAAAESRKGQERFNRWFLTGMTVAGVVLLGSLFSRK

`CC[C@H](C)[C@H](NC(=O)[C@H](CCCCN)NC(=O)[C@H](CCCNC(=N)N)NC(=O)[C@H](CC(C)C)NC(=O)[C@H](CCC(N)=O)NC(=O)[C@H](C)NC(=O)[C@H](C)NC(=O)[C@H](Cc1ccccc1)NC(=O)[C@H](CCC(=O)O)NC(=O)[C@@H]1CCCN1C(=O)[C@@H]1CCCN1C(=O)[C@H](CC(C)C)NC(=O)[C@H](CCC(=O)O)NC(=O)[C@H](C)NC(C)=O)C(=O)NCC(=O)N[C@@H](CC(=O)O)C(=O)N[C@@H](CCCCN)C(=O)N[C@H](C(=O)N[C@@H](Cc1ccc(O)cc1)C(=O)N[C@@H](CS)C(N)=O)C(C)C`: the IC50 in assay [1], in assay [2] and in assay [3] was over 1000 nM each time.

Take `CC[C@H](C)[C@H](NC(=O)[C@H](CCCNC(=N)N)NC(=O)[C@H](CCCNC(=N)N)NC(=O)[C@H](CC(C)C)NC(=O)[C@H](CCC(N)=O)NC(=O)[C@H](C)NC(=O)[C@H](CS)NC(=O)[C@H](CCC(=O)O)NC(=O)[C@H](CC(=O)O)NC(=O)[C@H](CCCCN)NC(=O)[C@H](CC(C)C)NC(=O)[C@H](CC(=O)O)NC(=O)[C@H](C)NC(=O)[C@@H]1CCCN1C(C)=O)C(=O)NCC(=O)N[C@@H](CC(=O)O)C(=O)N[C@@H](CCCCN)C(=O)N[C@H](C(=O)N[C@@H](CC(N)=O)C(=O)N[C@@H](CC(C)C)C(N)=O)C(C)C`: the IC50 in assay [1] is over 1000 nM; in assay [2], over 1000 nM; in assay [3], 431 nM.

As for `CC1(C)CCC(CN2CCN(c3ccc(C(=O)NS(=O)(=O)c4ccc(NCC5CCOCC5)c([N+](=O)[O-])c4)c(Oc4cnc5[nH]ccc5c4)c3)CC2)=C(c2ccc(Cl)cc2)C1`, the IC50 in assay [4] and in assay [3] was over 1000 nM in each case.

Take `CC(=O)N[C@@H](CCS)C(=O)N[C@@H](C)C(=O)N[C@H](C(=O)N[C@@H](CCC(N)=O)C(=O)N[C@@H](CC(C)C)C(=O)N[C@@H](CCCNC(=N)N)C(=O)N[C@@H](CCCNC(=N)N)C(=O)N[C@@H](Cc1ccccc1)C(=O)NCC(=O)N[C@@H](CC(=O)O)C(=O)N[C@@H](CCCCN)C(=O)N[C@@H](CC(C)C)C(=O)N[C@@H](CC(N)=O)C(=O)N[C@@H](Cc1ccccc1)C(=O)N[C@@H](CCCNC(=N)N)C(=O)N[C@@H](CCC(N)=O)C(=O)N[C@@H](CCCCN)C(=O)N[C@@H](CC(C)C)C(=O)N[C@@H](CC(C)C)C(=O)N[C@@H](CC(N)=O)C(N)=O)[C@@H](C)O` (Ac-[hCys]ATQLRRFGDKLNFRQKLLN-NH2): the IC50 in assay [1] is over 1000 nM; in assay [4], 266 nM; in assay [2], over 1000 nM; in assay [3] it was 83 nM.

Regarding `C=CCCC[C@](C)(NC(=O)[C@H](CC(=O)O)NC(=O)CNC(=O)[C@@H](NC(=O)[C@](C)(CCCC=C)NC(=O)[C@H](CCCNC(=N)N)NC(=O)[C@H](CC(C)C)NC(=O)[C@H](CCC(=O)O)NC(=O)[C@H](CCC(N)=O)NC(=O)[C@H](C)NC(=O)C(CNC(=O)CCl)NC(C)=O)[C@@H](C)CC)C(=O)N[C@@H](Cc1ccccc1)C(=O)N[C@@H](CC(N)=O)C(=O)N[C@@H](C)C(=O)N[C@@H](Cc1ccc(O)cc1)C(=O)N[C@@H](Cc1ccc(O)cc1)C(=O)N[C@@H](C)C(=O)N[C@@H](CCCNC(=N)N)C(=O)N[C@@H](CCCNC(=N)N)C(N)=O` (some centres not stated) [130D11], the IC50 in assay [1] was 199 nM; in assay [4], 32 nM; in assay [2] it was 220 nM; in assay [3] it was 13.9 nM.

Regarding `CC[C@H](C)[C@H](NC(=O)[C@H](CCCNC(=N)N)NC(=O)[C@H](CCCNC(=N)N)NC(=O)[C@H](CC(C)C)NC(=O)[C@H](CCC(=O)O)NC(=O)[C@H](CCC(N)=O)NC(=O)[C@H](C)NC(=O)[C@@H](NC(=O)[C@H](CNC(=O)CCl)NC(C)=O)[C@@H](C)CC)C(=O)NCC(=O)N[C@@H](CC(=O)O)C(=O)N[C@@H](CCC(=O)O)C(=O)N[C@@H](Cc1ccccc1)C(=O)N[C@@H](CC(N)=O)C(=O)N[C@@H](C)C(=O)N[C@@H](Cc1ccc(O)cc1)C(=O)N[C@@H](Cc1ccc(O)cc1)C(=O)N[C@@H](C)C(=O)N[C@@H](CCCNC(=N)N)C(=O)N[C@@H](CCCNC(=N)N)C(N)=O` [130E7] (Ac-[Dap](ClAc)IAQELRRIGDEFNAYYARR-NH2), the IC50 in assay [1] turned out to be 27 nM; in assay [2] it was 46.5 nM; in assay [3], 8.7 nM. The Kd in assay [2] (pH 7.4) is 25.5 nM; in assay [3] (pH 7.4, 25 °C), 2.6 nM.

For `CC[C@H](C)[C@H](NC(=O)C(CNC(=O)CCl)NC(C)=O)C(=O)N[C@@H](C)C(=O)N[C@@H](CCC(N)=O)C(=O)N[C@@H](CCC(=O)O)C(=O)N[C@@H](CC(C)C)C(=O)N[C@@H](CCCNC(=N)N)C(=O)N[C@@H](CCCNC(=N)N)C(=O)N[C@H](C(=O)NCC(=O)N[C@@H](CC(=O)O)C(=O)N[C@@H](CCC(=O)O)C(=O)N[C@@H](Cc1ccccc1)C(=O)N[C@@H](CC(N)=O)C(=O)N[C@@H](C)C(=O)N[C@@H](Cc1ccc(O)cc1)C(=O)N[C@@H](Cc1ccc(O)cc1)C(=O)N[C@@H](C)C(=O)N[C@@H](CCCNC(=N)N)C(=O)N[C@@H](CCCNC(=N)N)C(N)=O)[C@@H](C)CC` (some centres not stated) [130E7] (Ac-[ξDap](ClAc)IAQELRRIGDEFNAYYARR-NH2), 23 nM corresponded to half-maximal inhibition in assay [4] (IC50). In assay [4] (pH 7.4, 25 °C), this molecule had a Kd of 2 nM.

`CC(=O)NC(CNC(=O)CCl)C(=O)N[C@@H](C)C(=O)N[C@H](C(=O)N[C@@H](CCC(N)=O)C(=O)N[C@@H](CC(C)C)C(=O)N[C@@H](CCCNC(=N)N)C(=O)N[C@@H](CCCNC(=N)N)C(=O)N[C@@H](Cc1ccccc1)C(=O)NCC(=O)N[C@@H](CC(=O)O)C(=O)N[C@@H](CCCCN)C(=O)N[C@@H](CC(C)C)C(=O)N[C@@H](CC(N)=O)C(=O)N[C@@H](Cc1ccccc1)C(=O)N[C@@H](CCCNC(=N)N)C(=O)N[C@@H](CCC(N)=O)C(=O)N[C@@H](CCCCN)C(=O)N[C@@H](CC(C)C)C(=O)N[C@@H](CC(C)C)C(=O)N[C@@H](CC(N)=O)C(N)=O)[C@@H](C)O` (some centres not stated) [λ_hNOXA] (Ac-[ξDap](ClAc)ATQLRRFGDKLNFRQKLLN-NH2): half-maximal inhibition in assay [4] (IC50) was put at 233 nM. This counts as sub-micromolar.

In the case of Ac-CATQLRRFGDKLN-NH2, the IC50 in assay [1] was over 1000 nM; in assay [4] it was over 1000 nM; in assay [2], over 1000 nM; in assay [3], 15 nM.

On to Ac-CATQLRRFGDKLNFRQKLLN-NH2, for which the IC50 is over 1000 nM in assay [1], 228 nM in assay [4], over 1000 nM in assay [2] and 7.5 nM in assay [3].
